Data published in patent US7196229B2, “Benzoylcyclohexenone derivatives” (BASF Aktiengesellschaft, priority 2001, dated 2007).

Assays:
[1] = tested on: ECHCG; assay: greenhouse post-emergence herbicidal test; type: in vivo, barnyard grass; settings: application rates of 0.125 or 0.0625 kg/ha
Text: (§1) The seeds of the test plants were sown separately for each species. For the post-emergence treatment, the test plants were first grown to a height of from 3 to 15 cm, depending on the plant habit, and only then treated with the active compounds which had been suspended or emulsified in water. The test plants were for this purpose either sown directly and grown in the same containers, or they were first grown separately as seedlings and transplanted into the test containers a few days prior to treatment. The application rate for the post-emergence treatment was 0.125 and 0.0625 kg of a.s. (active substance)/ha. Depending on the species, the plants were kept at 10–25° C. or 20–35° C. The test period extended over 2 to 4 weeks. During this time, the plants were tended, and their response to the individual treatments was evaluated. The evaluation was carried out using a scale from 0 to 100. 100 means no emergence of the plants, or complete destruction of at least the aerial parts and 0 means no damage, or normal course of growth. The plants used in the greenhouse experiments were of the following species: [table]

[2] = tested on: ABUTH; assay: greenhouse post-emergence herbicidal test; type: in vivo, velvetleaf; settings: application rates of 0.125 or 0.0625 kg/ha
Text: as §1

[3] = tested on: CHEAL; assay: greenhouse post-emergence herbicidal test; type: in vivo, lambsquarters; settings: application rates of 0.125 or 0.0625 kg/ha
Text: as §1

[4] = tested on: POLPE; assay: greenhouse post-emergence herbicidal test; type: in vivo, ladys thumb; settings: application rates of 0.125 or 0.0625 kg/ha
Text: as §1

[5] = tested on: PHBPU; assay: greenhouse post-emergence herbicidal test; type: in vivo, morning glory; settings: application rates of 0.125 or 0.0625 kg/ha
Text: as §1

[6] = tested on: SETFA; assay: greenhouse post-emergence herbicidal test; type: in vivo, giant foxtail; settings: application rates of 0.125 or 0.0625 kg/ha
Text: as §1

[7] = tested on: AMARE; assay: greenhouse post-emergence herbicidal test; type: in vivo, redroot pigweed; settings: application rates of 0.125 or 0.0625 kg/ha
Text: as §1

Row | SMILES | herbicidal post-emergence activity against ECHCG [1] | herbicidal post-emergence activity against CHEAL [3] | melting point [°C] | further results
1 | Cc1c(C(=O)C2=C(O)CCCC2=O)ccc(S(C)(=O)=O)c1S(C)(=O)=O [Compound 2.1, 2-[2-Methyl-3,4-di(methylsulfonyl)benzoyl]cyclohexane-1,3-dione] | very good | very good | 301 to 302 | herbicidal post-emergence activity against ABUTH [2]: very good; herbicidal post-emergence activity against POLPE [4]: very good
2 | Cc1c(C(=O)C2=C(O)CC(C)CC2=O)ccc(S(C)(=O)=O)c1S(C)(=O)=O (centres unmarked) [Compound 2.3] | very good | very good | 235 to 239 | herbicidal post-emergence activity against ABUTH [2]: very good; herbicidal post-emergence activity against PHBPU [5]: very good
3 | Cc1c(C(=O)C2=C(O)CCC(C)(C)C2=O)ccc(S(C)(=O)=O)c1S(C)(=O)=O [Compound 2.4] | very good | very good |  | herbicidal post-emergence activity against SETFA [6]: very good; herbicidal post-emergence activity against PHBPU [5]: very good
4 | Cc1c(C(=O)C2=C(O)CC(C)(C)CC2=O)ccc(S(C)(=O)=O)c1S(C)(=O)=O [Compound 2.5] | very good | very good |  | herbicidal post-emergence activity against SETFA [6]: very good; herbicidal post-emergence activity against AMARE [7]: very good
5 | Cc1c(C(=O)C2=C(O)CCCC2=O)ccc(Cl)c1S(C)(=O)=O [Compound 2.6] | very good |  | 137 to 140 | herbicidal post-emergence activity against ABUTH [2]: very good; herbicidal post-emergence activity against POLPE [4]: very good; herbicidal post-emergence activity against SETFA [6]: very good
6 | COc1ccc(C(=O)C2=C(O)CCCC2=O)c(C)c1S(C)(=O)=O [Compound 2.7] |  |  | 121 to 129 | 
7 | COc1ccc(C(=O)C2=C(O)CC(C)(C)CC2=O)c(C)c1S(C)(=O)=O [Compound 2.8] |  |  | 163 to 165 | 
8 | COc1ccc(C(=O)C2=C(O)CC(C)CC2=O)c(C)c1S(C)(=O)=O (centres unmarked) [Compound 2.9] |  |  | 106 to 112 | 
9 | Cc1c(C(=O)C2=C(O)CCCC2=O)ccc(OC(F)F)c1S(C)(=O)=O [Compound 2.10] |  |  | 64 to 69 | 
10 | Cc1c(C(=O)C2=C(n3cccn3)CCCC2=O)ccc(S(C)(=O)=O)c1S(C)(=O)=O [Compound 3.1] |  |  | 275 to 277 | 
11 | Cc1c(C(=O)C2=C(n3cccn3)CC(C)CC2=O)ccc(S(C)(=O)=O)c1S(C)(=O)=O (centres unmarked) [Compound 3.2] |  |  | 278 to 283 | 
